Test results as given in PMC2920492 (Journal of medicinal chemistry, 2010).

What was measured:
global H3K4me2 [1] = conditions: P19 cell line; cited from earlier work
global H3K4me1 [2] = conditions: HCT116 cells, 48 hr exposure, increasing concentrations; cited from earlier work
global H3K4me2 [3] = conditions: HCT116 cells, 48 hr exposure, increasing concentrations; cited from earlier work
global H3K9me2 = conditions: HCT116 cells, 48 hr exposure, increasing concentrations; cited from earlier work
recombinant human LSD1 [4] = molecular target: T1, recombinant human LSD1 (Homo sapiens, UniProt O60341); conditions: 10 μM; cited from earlier work
recombinant human LSD1 [5] = molecular target: T1, recombinant human LSD1; format: biochemical; conditions: read-out: reduction of LSD1 activity (inhibition), 10 μM
[6] = test system: HCT116 human colon carcinoma; conditions: compound alone; cited from earlier work
global H3K4me1 [7] = assay: Global H3K4me1 levels by quantitative Western blot in Calu-6 cells; format: cell-based, human; conditions: 10 μM
GATA4 = GATA4 mRNA re-expression by qPCR in Calu-6 cells; format: cell-based, human; conditions: 5 and 10 μM, 24 h
global H3K4me2 [8] = assay: Global H3K4me2 levels by quantitative Western blot in Calu-6 cells; format: cell-based, human; conditions: 10 μM
SFRP2 = SFRP2 mRNA re-expression by qPCR in Calu-6 cells; format: cell-based, human; conditions: 10 μM, 24 h
[9] = test system: recombinant LSD1/CoRest complex; conditions: cited from earlier work

## N[C@@H]1C[C@H]1c1ccccc1 (racemic) [tranylcypromine]
Global H3K4me2 [1]
  global levels of H3K4me2: increase

## C/N=C(\NC)NCCCNCCCNCCCN/C(=N/C)NC.Cl [Compound 1c]
Global H3K4me1 [2]
  global H3K4me1: significant global increases
Global H3K4me2 [3]
  global H3K4me2: significant global increases
Global H3K9me2
  global H3K9me2 levels: not affecting
Recombinant human LSD1 [4]
  %LSD1 activity remaining: 14.1 (from [ref. 25]) %

## Cl.N=C(NCCCNCCCCCCCNCCCNC(=N)NC(=N)NCCC(c1ccccc1)c1ccccc1)NC(=N)NCCC(c1ccccc1)c1ccccc1 [Compound 2d]
Global H3K4me1 [2]
  global H3K4me1: significant global increases
Global H3K4me2 [3]
  global H3K4me2: significant global increases
Global H3K9me2
  global H3K9me2 levels: not affecting
Recombinant human LSD1 [5]
  inhibition at 10 µM: 82.9%
[6]
  effect on tumor cell growth: little effect

## Cl.Cl.S=C(NCCCNCCCCCCCNCCCNC(=S)NCC(c1ccccc1)c1ccccc1)NCC(c1ccccc1)c1ccccc1 [Compound 25, 1,15-bis-{3-[1-(2,2-diphenylethyl)thioureado]}-4,12-diazapentadecane]
Global H3K4me1 [7]; 24 h
  global H3K4me1 level: significant increases
Global H3K4me1 [7]; 48 h
  global H3K4me1 level: most dramatic increases
GATA4
  effect on GATA4 levels: did not produce significant increases
Global H3K4me2 [8]; 24 h
  global H3K4me2 level: significant increases
Global H3K4me2 [8]; 48 h
  global H3K4me2 level: most dramatic increases

## Cl.Cl.S=C(NCCCNCCCCNCCCNC(=S)NCC(c1ccccc1)c1ccccc1)NCC(c1ccccc1)c1ccccc1 [Compound 26, 1,12-bis-{3-[1-(2,2-diphenylethyl)thioureado]}-4,9-diazadodecane]
Global H3K4me1 [7]; 24 h
  global H3K4me1 level: significant increase
Global H3K4me1 [7]; 48 h
  global H3K4me1 level: increase
GATA4
  effect on GATA4 levels: did not produce significant increases
Global H3K4me2 [8]; 24 h
  global H3K4me2 level: decreased
Global H3K4me2 [8]; 48 h
  global H3K4me2 level: reduction

## Cl.Cl.S=C(NCCCNCCCNCCCNC(=S)NCC(c1ccccc1)c1ccccc1)NCC(c1ccccc1)c1ccccc1 [Compound 27, 1,11-bis-{3-[1-(2,2-diphenylethyl)thioureado]}-4,8-diazaundecane]
Global H3K4me1 [7]; 24 h
  global H3K4me1 level: significant increases
Global H3K4me2 [8]; 24 h
  global H3K4me2 level: significant increases
SFRP2
  increase in SFRP2 expression: 4.8 fold

## NNCCc1ccccc1 [phenelzine]
[9]
  nucleosomal demethylation: inactivate
Global H3K4me2 [1]
  global levels of H3K4me2: increase
